Legend:
[1] = tested on: p-ERK, p-p38, JNK MAPK, p-NF-κB p65, p-c-JUN; assay: Western blot of MAPK, NF-κB and c-JUN signaling in UVB-induced 3T3 fibroblasts; assay type: cell-based, mouse; conditions: 3T3 cells; for phosphorylation level of JNK MAPK / phosphorylation levels of ERK and p38 MAPKs: PDT after UVB treatment
From the text: One of the major factors of UVB-induced skin aging is inflammation-mediated skin aging. In UVB-induced skin photoaging, increased intracellular ROS can promote MMP production by activating the MAPK, AP-1, and NF-κB pathways. […] Ce6-diPEG-curcumin-PDT and Ce6-propane-curcumin-PDT lowered the phosphorylation levels of ERK and p38 MAPKs but not those of JNK MAPK.
Figure 9 Effect of Ce6-curcumin derivatives-PDT on MAPK, NF-κB and c-JUN signaling proteins. Protein expressions of p-p38, p-38, p-ERK, ERK, p-c-JUN, c-JUN, p-p65 and p65 in the UVB-induced murine 3T3 fibroblast cell line after Ce6-diPEG-curcumin (150 and 200 μΜ) and Ce6-propane-curcumin (75 and 100 μΜ)-PDT treatment. Representative bars are expressed as mean only.
(§1) The cells were lysed with RIPA lysis buffer containing protease inhibitor cocktails (Gen-DEPOT, Katy, TX, USA). Cell lysates were vortexed and centrifuged at 13,000 rpm for 15 min at 4 °C. Protein concentration was determined using the Bradford protein assay kit, and the same amount of protein was separated by SDS-PAGE gel. Then, proteins were transferred to a polyvinylidene fluoride (PVDF) membrane. Further, the membranes were blocked with a blocking solution containing 5% skim milk in Tris-buffered saline containing Tween 20 (TBST) for 1 h and incubated overnight with the primary antibody diluted in 5% skim milk in TBST at 4 °C. Then, the membrane was rinsed with TBST for 30 min and incubated with horseradish peroxidase-conjugated secondary antibodies in a blocking solution for 1 h. All bands were visualized by using an enhanced chemiluminescence (ECL) kit (Pierce, Rockford, IL, USA) under a luminescent image analyzer (Amersham, GE Healthcare, Chicago, IL, USA). The primary antibodies against MMP-1 were obtained from Thermo Fischer Scientific Inc. (NYSE: TMO). Antibodies directed against p-p65, p65, p-p38, p38, p-ERK, ERK, p-c-JUN, and c-JUN were purchased from Cell Signaling Technology Inc. (Beverley, MA, USA). COX-2 and β-Actin antibodies were from Santa Cruz Biotechnology (Santa Cruz, CA, USA), while TNF-α antibodies were procured from Novus Biologicals, Inc. (Centennial, CO, USA).

[2] = ORAC (oxygen radical absorbance capacity) assay; assay type: biochemical; conditions: Trolox equivalent
Protocol: The ORAC assay is based on the scavenging of peroxyl radicals generated by 2,2′-azobis(2-methylpropioamidine) dihydrochloride (AAPH), which prevents the degradation of the fluorescein probe. The ORAC values were calculated as the area under the curve (AUC) and expressed as µM of Trolox equivalent (TE).

COX-2, TNF-α, iNOS = assay: Western blot of COX-2, TNF-α and iNOS in UVB-induced 3T3 fibroblasts; assay type: cell-based, mouse; conditions: for UVB-upregulated COX-2 and TNF-α protein levels: fibroblast cells
From the text: We further investigated the expressions of COX-2, TNF-α, and MMP-1 to ascertain the effect of UVB on the expressions of NF-κB and AP-1-dependent genes. These genes have an NF-κB and AP-1 functional binding site in their promoter regions and are linked to inflammation.
Figure 10 Effect of Ce6-curcumin derivatives-PDT on UVB-induced COX-2 and iNOS expressions. […] Representative bars are expressed as mean only.
as §1

BALB/c 3T3 cells = assay: MTT cytotoxicity of Ce6-curcumin derivative PDT in BALB/c 3T3 cells; assay type: cell-based, mouse; conditions: Mus musculus, BALB/c3T3, light or radiation study; 3 h treatment, 660 nm 20 J/cm^2, MTT after 24 h; read-out: IC50 BALB/c 3T3 cell viability
Protocol: MTT assay was used to evaluate viability after 24 h. IC50 values were calculated using GraphPad Prism 5 software.
Hs68 and BALB/c 3T3 cell viability was measured using a 3-[4,5-dimethylthylthiazol-2-yl]-2,5 diphenyl tetrazolium bromide (MTT) assay. The cells were cultured in 24-well plates at a density of 3 × 10^4 cells per well or BALB/c 3T3 cells at a density of 1 × 10^4 cells per well. […] The Hs68 cells were then exposed to LED light (660 nm; 89 W/m^2; 20 J/cm^2) for 37 min 27 s and incubated for 3 h. […] The cells were washed and treated with MTT, after which the plates were incubated at 37 °C in the dark for 2 h. After the formation of formazan, 100 µL of DMSO was added, and the absorbance was measured at 570 nm using a microtiter plate reader (Thermo-scientific, Skanlt software 5.0, Waltham, MA, USA)

[3] = tested on: collagen synthesis in Hs68 cells; assay: Sircol collagen assay in UVB-irradiated Hs68 cells; assay type: cell-based, human; conditions: 30–40 nM, UVB 200 mJ/cm^2, LED irradiated
Protocol: The amount of collagen was measured through the Sircol collagen assay kit (Figure 8).
Each scale value is shown as the mean only.
Following this, 1 mL Sirius red dye, an anionic dye that reacts specifically with the basic side chain groups of collagens under the assay conditions, was added to 300 µL of cell culture medium supernatant and incubated with gentle rotation for 30 min at room temperature. After centrifugation, the pellet was washed with ice-cold acid-salt wash reagent released in alkali reagent, and the absorbance at 570 nm was measured using an ELISA reader (Sunrise, Tecan, Männedorf, Switzerland). The amount of collagen was calculated based on a standard curve obtained with the standard bovine type I collagen supplied with the kit.

Compound | UVB-induced increases in p-NF-κB p65 and p-c-JUN ([1]; 150 and 200 μM followed by laser irradiation) | phosphorylation level of JNK MAPK [1] | phosphorylation levels of ERK and p38 MAPKs [1] | ORAC LED Condition (TE, μM) ([2]; LED 20 J/cm^2, 1 μM compound) [µM] | ORAC LED Condition (TE, μM) ([2]; LED 20 J/cm^2, 10 μM compound) [µM] | ORAC Dark Condition (TE, μM) ([2]; 1 μM compound) [µM] | ORAC Dark Condition (TE, μM) ([2]; 10 μM compound) [µM] | expression levels of iNOS and COX-2 (COX-2, TNF-α, iNOS; 200 nM, PDT, UVB-induced 3T3) | UVB-upregulated COX-2 and TNF-α protein levels (COX-2, TNF-α, iNOS; 150 and 200 μΜ) | IC50 (BALB/c 3T3 cells) [nM] | UVB-induced increases in p-NF-κB p65 and p-c-JUN ([1]; 75 and 100 μM followed by laser irradiation) | collagen synthesis [3] | UVB-upregulated COX-2 and TNF-α protein levels (COX-2, TNF-α, iNOS; 75 and 100 μΜ)
C=Cc1c(C)c2cc3nc(c(CC(=O)OC)c4[nH]c(cc5nc(cc1[nH]2)C(C)=C5CC)c(C)c4C(=O)NCCCOCCOCCOCCCNC(=O)CCCC(=O)Oc1ccc(/C=C/C(=O)CC(=O)/C=C/c2ccc(O)c(OC)c2)cc1OC)C(CCC(=O)OC)C3C (stereo not shown) [Ce6-diPEG-curcumin] | greatly reversed this trend | not | lowered | 0.85 | 27.98 | 20.85 | 30.32 | below those seen in the normal control | downregulated these increases | 800 |  |  | 
C=Cc1c(C)c2cc3nc(c(CC(=O)OC)c4[nH]c(cc5nc(cc1[nH]2)C(C)=C5CC)c(C)c4C(=O)NCCCNC(=O)CCCC(=O)Oc1ccc(/C=C/C(=O)CC(=O)/C=C/c2ccc(O)c(OC)c2)cc1OC)C(CCC(=O)OC)C3C (stereo not shown) [Ce6-propane-curcumin] |  | not | lowered | 2.78 | 30.66 | 20.11 | 26.83 |  |  |  | greatly reversed this trend | increase in collagen synthesis in a dose-dependent manner | downregulated these increases

From paper PMC10487708, “Chlorin E6-Curcumin-Mediated Photodynamic Therapy Promotes an Anti-Photoaging Effect in UVB-Irradiated Fibroblasts” (International Journal of Molecular Sciences, 2023)
